From patent US8133971B2, “Polypeptide specifically bound to phosphatidylserine and the use thereof” (Kyungpook National University Industry Academic Cooperation …, priority 2008, dated 2012)
Ends that are not written are not given here. fluorescein = fluorescein bonded at the N-terminus

Columns and labels:
H460 cell = test: FACS analysis of labeled peptide binding to normal or apoptotic cells; assay type: cell-based, Human; conditions: fluorescein at N-end, 2.5 μM, 15 minutes; for binding of labeled peptide to apoptotic cells by FACS: apoptotic H460 cell
Experimental: Apoptotic cells are treated with a labeled peptide of the present embodiment and then FACS analyses are carried out to confirm that whether the peptide of the present embodiment is bound to phosphatidylserine of apoptotic cells or not.
The peptide used in the present embodiment has a form in which fluorescein is bonded at N-end. The peptide is synthesized according to the standard Fmoc method and separated by HPLC (Peptron Co.) before use.
The final concentration of the peptide of the present embodiment or the control group peptide (amino acid sequence: NSSVDK (SEQ ID NO: 8)) is 2.5 μM and the solution is dissolved in Hepes buffer (pH7.4, Hepes 10 mM, […] 138 mM, and with/without CaCl2). The solution is mixed with normal H460 cell or dead H460 cell (1×10^5 cells/mL) to become 0.5 mL of final volume and then cultured for 15 minutes at room temperature. The cells are washed with a binding buffer and then FACS analyses are immediately carried out (FACSScan, Becton Dickinson, San Jose, Calif.).

H460 cells = test: fluorescence and confocal microscopy of peptide and annexin V marking of cells; assay type: cell-based, Human; conditions: for marking of apoptotic cells (fluorescent microscope) / marking of normal cells (fluorescent microscope): fluorescein peptide 10 μM, annexin V Alexa fluor 594; for marking of normal cells (fluorescent microscope): normal H460 cells
Experimental: H460 cells are cultured in a chamber slide (Nalgen Nunc Int.) and apoptosis is induced as described in embodiment 4-1. The apoptotic cells are washed with PBS and then the cells are cultured in tyrodes buffer in the presence of a peptide marked with 10 μM of fluorescein for 30 minutes at room temperature. After that, the cells are cultured with annexin V Alexa fluor 594 (Molecular Probes) for 15 minutes at room temperature. The cells are washed with PBS and then fixed with 4% of paraformaldehyde for 5 minutes. After that, the cells are counterstained by 4′,6-diamidino-2-phenylindole (DAPI) and then the cells are treated with a mounting solution to take a picture by fluorescent microscope (Zeiss, Oberkochen, Germany).
Also as shown in the FIG. 4C, the image is taken by a laser confocal microscope (LEICA).

H460 tumor xenografts [1] = test: in vivo homing and in vivo/ex vivo visualization in tumor xenografts; parameters: species or system BALB/c male nude mouse; conditions: for ex vivo fluorescein signal from tumor tissue: tumor removed 2 hours after peptide injection; for in vivo fluorescein signal from tumor tissue: 50 μM through tail vein, after 2 hours
Experimental: All of animal experiments are carried out in accordance with guidelines of the kyoungpook national university. For tumor xenografts, H460 cells (1×10^7 cells) floated on RPMI medium containing 10% FBS are injected hypodermically at a right shoulder of a 6 week old BALB/c male nude mouse (SLC, Inc.). Then, tumor cells are allowed to grow about 0.5 to 1.0 cm for 3 weeks.
The mice having tumor cells are divided into a camptothecin treated group and untreated group, and then the camptothecin treated group is taken a dose of camptothecin (Sigma, 10 mg/kg) at 24 hours before peptide treatment. After that, fluorescein-labeled peptide (fluorescein-labeled CLSYYPSYC (SEQ ID NO: 1)) (50 μM) of the present embodiment or a control group peptide (50 μM) is injected through tail vein under isoflurane anesthesia. The peptide induced to the tumor cells are checked at every hour by the optical visualization system (ART Advanced Research Technologies Inc., Montreal, Canada) using […]/GFP filter after peptide injection. To each used mouse, baseline fluorescence of fluorescein is measured before peptide injection. The obtained image is treated and normalized by eXplore Optix optiView Software. After 2 hours of the peptide injection, the tumor is removed from the mouse and then ex vivo visualization of the tumor cell is carried out. The image is treated as above.

H460 tumor xenografts [2] = test: histological test of in vivo homing (CD31 staining, TUNEL, organs); conditions: for peptide observed in tumor region stained by CD31: fluorescence microscope
Description: For a histological test, the above mouse undergoes anesthesia and then undergoes laparotomy. PBS and 4% paraformaldehyde (PFA) fixing agent is used for perfusion, and then tumor tissue and organs are removed. After cryosection of each tissue, the peptide of the present embodiment is observed by fluorescence microscope. Tumor vessels are stained by immunohistochemistry using an antibody (BD Pharmigen) to the mouse CD31 and alexa 568 labeled secondary antibody. Cell death in a tumor tissue is verified by TUNEL ([…] terminal deoxynucleotidyl transferase-mediated dUTP nick-end labeling) analyses according to the manufacturer's manual (Chemicon Int. USA).

[3] = system: apoptotic cells (H460 cell); test: competitive inhibition of phage binding to apoptotic cells (phage titer); assay type: cell-based, Human; conditions: for phage titer of selected phage bound to apoptotic cells after peptide treatment: peptide 50 μM, H460, versus un-treated group
Experimental: The specificity of the phage to phosphatidylserine bound to apoptotic cells is tested by competitive inhibition with annexin V.
A pre-cultured group, which is cultured for 30 minutes with annexin V (10 μM) before the apoptotic cells (H460 cell) are cultured with the phage, is used for the test. And a control group, which is not pre-cultured with annexin V, is used for the test. Phages are bound and eluted as described in the embodiment 4-1 and then phage titer is measured.
And, phage titer of a group treated with the synthesized peptide (50 μM) according to CLSYYPSYC (SEQ ID NO: 1) of amino acid sequence, which is shown in the selected phage clone, is measured. Phage titer of an un-treated group and a group treated with the peptide of the control group are measured. Phages are bound and eluted as described in the embodiment 4-1 and then phage titer is measured.

[4] = annexin V binding test of coated plate; conditions: his-tagged recombinant annexin V 20 μg/mL, 1 hour at room temperature
Experimental: For the preparation of a plate (or well) coated by phosphatidylserine or phosphatidylcholine, phosphatidylserine or phosphatidylcholine is dissolved in ethanol (300 μg/mL, 100 μL), and then the solution is placed and dried in Immulon 1B microtiter plate (Thermo, Milford, Mass., USA) for 6 hours in air. To prevent from non-specific binding, TBS (Tris-HCl 50 mM, pH7.4, NaCl 150 mM) containing 10 mg/mL of BSA (bovine serum albumin) is added to the solution and then blocking is performed for 1 hours at room temperature. The plates coated by phosphatidylserine or phosphatidylcholine are evaluated by annexin V binding test so as to use a coated plate.
To bind annexin V, his-tagged recombinant annexin V protein (20 μg/mL) is dissolved in TBS buffer containing 10 mg/mL of BSA and then the solution is placed ELISA plate coated by phosphatidylserine or phosphatidylcholine. After 1 hour of standing at room temperature, the plate is washed by TBS-T buffer for 3 times and the bound annexin V protein is reacted with mouse anti histidine IgG antibody (Santa Cruz Biotechnology) to which HRP is bound and then binding is tested by the reaction with TBM base.

[5] = phosphatidylserine binding of phage clone in the presence of annexin V (phage ELISA); conditions: annexin V protein 10 μM
Experimental: The phosphatidylserine binding specificity of the selected phage clone is tested by phosphatidylserine binding in the presence of annexin V.
In short, Immulon 1B microtiter plate is coated with phosphatidylcholine as described in the embodiment 1-2. Then, the plates are blocked with TBS medium containing 10 mg/mL of BSA for 1 hour at room temperature.
The selected phage clone is added to 100 μl of TBS buffer and then the mixture is added to the well coated with phosphatidylcholine. The well is gently shaken for 1 hour at room temperature (incubate). In a group in which annexin V is added, the above phage clone is cultured in the presence of annexin V protein (10 μM) and then 100 μl of TBS buffer is added to the phage clone. The mixture is added to the well coated with phosphatidylserine and then the well is gently shaken for 1 hour at room temperature. The well is strongly washed with TBS-T (TBS containing 0.05% Tween-20) buffer for 6 times and then phages bound to the well are detected by binding HRP (horseradish peroxidase)-bound anti-M13 antibody (New England Biolabs) (dilution, 1:4000 in TBS-T) for 1 hour at room temperature. After that, color reaction is carried out with HRP substrate suspension (TMB, Pierce). The color reaction is stopped by adding 2N H2SO4 and then absorbance is measure by the microplate reader (Bio-Rad, model 550) at 450 nm.

Row | Substance | binding of labeled peptide to apoptotic cells by FACS (H460 cell) | binding of labeled peptide to normal cells by FACS (H460 cell; normal H460 cell) | marking of apoptotic cells (fluorescent microscope) (H460 cells; apoptotic H460 cells) | binding site on apoptotic cells compared with annexin V (H460 cells; apoptotic H460 cells, photo composition / laser confocal microscope) | marking of normal cells (fluorescent microscope) (H460 cells) | ex vivo fluorescein signal from tumor tissue (H460 tumor xenografts [1]) | location of peptide fluorescent signal relative to TUNEL staining in tumor (H460 tumor xenografts [2]; TUNEL analyses of tumor tissue) | peptide observed in liver and lung tissue (H460 tumor xenografts [2]; control group organs, cryosection) | peptide observed in tumor region stained by CD31 (H460 tumor xenografts [2]; cryosection) | fluorescence by the peptide in kidney (H460 tumor xenografts [2]; cryosection, excreted peptide in the uresis path) | phage titer of selected phage bound to apoptotic cells after peptide treatment [3] | in vivo fluorescein signal from tumor tissue (H460 tumor xenografts [1]) | annexin V binding to coated plate [4] | inhibition of phosphatidylserine binding of the selected phage clone [5] | phage titer of selected phage bound to apoptotic cells after annexin V pre-treatment ([3]; annexin V 10 μM, pre-cultured 30 minutes, H460)
1 | CLSYYPSYC [peptide of the present embodiment] | certainly bound | not certainly bound | marking is occurred in both cases | bound to the same site | marking is not occurred | intensively monitored | observed mainly in the TUNEL stained region | not observed | a large amount | observed | greatly decreased | – | – | – | –
2 | NSSVDK [control group peptide, reference compound] | not certainly bound | – | marking is occurred in annexin V case only | – | – | very weakly monitored or not monitored | – | – | not observed | – | no difference | very weakly monitored or not monitored | – | – | –
3 | annexin V: annexin V protein, phosphatidylserine-binding reference (his-tagged recombinant or Alexa fluor 594 labeled) | – | – | marking is occurred | – | marking is not occurred | – | – | – | – | – | – | – | certainly bound | inhibits | greatly decreased
4 | fluorescein-labeled CLSYYPSYC (fluorescein-CLSYYPSYC; cysteine pairing not given here) [… peptide with fluorescein bonded at N-end] | – | – | – | – | – | – | – | – | – | – | – | intensively detected | – | – | –
